# Measurements published in patent US20110183978A1, “Phenylpyri(mi)dinylazoles” (Bayer CropScience AG, priority 2009, published 2011).
# Assay: physchem
# Conditions: LogPA (logP of the stated pure compound or, in a mixture, of the main isomer, 1-substituted 3-aryl-1H-pyrazole)
row,Compound,chromatographic logP
1,CC(C)=CCn1cc(-c2ccncn2)c(-c2cccc(Cl)c2)n1 [Compound 34],3.5
2,FC(F)(F)c1cccc(-c2nn(C3CCCCO3)cc2-c2cc(N3CCOCC3)ncn2)c1 (stereo not drawn) [Compound 36],2.1
3,CCC(C)n1ncc(-c2ccncc2)c1-c1c(F)cccc1F (stereo not drawn) [Compound 38],1.9
4,Nc1cc(-c2cn(C3CCCCO3)nc2-c2ccc(F)cc2)ccn1 (stereo not drawn) [Compound 39],1.38
5,FC(F)(F)c1cccc(-c2nn(C3CCCCO3)cc2-c2ccncc2)c1 (stereo not drawn) [Compound 42],1.84
6,COc1ccc(-c2nn(C3CCCCO3)cc2-c2ccncc2)cc1 (stereo not drawn) [Compound 43],1.24
7,COc1ccc(-c2c(-c3ccncc3)cnn2C2CCCCO2)c2ccccc12 (stereo not drawn) [Compound 45],1.69
8,CC(C)(C)C(=O)Nc1cc(-c2cn(C3CCCCO3)nc2-c2cccc(C(F)(F)F)c2)ccn1 (stereo not drawn) [Compound 48],4.1
9,C#CCn1ccc2c(-c3cn(C4CCCCO4)nc3-c3ccc(F)cc3)ccnc21 (stereo not drawn) [Compound 49],3.47
10,"Fc1ccc(-c2c(-c3ccncc3)cnn2C2CCCCO2)cc1Cl (stereo not drawn) [Compound 51, 4-[5-(3-chloro-4-fluorophenyl)-1-(tetrahydro-2H-pyran-2-yl)-1H-pyrazol-4-yl]pyridine]",1.57
11,Fc1ccc(-c2nn(C3CCCCO3)cc2-c2cc(N3CCOCC3)ncn2)cc1 (stereo not drawn) [Compound 52],1.49
12,Cc1cc(-c2c(-c3ccncc3)cnn2C2CCCCO2)ccc1F (stereo not drawn) [Compound 55],1.47
13,"Fc1ccc(-c2c(-c3ccncc3)cnn2C2CCCCO2)c(F)c1 (stereo not drawn) [Compound 56, 4-[5-(2,4-difluorophenyl)-1-(tetrahydro-2H-pyran-2-yl)-1H-pyrazol-4-yl]pyridine]",1.35
14,"CC(C)(C)c1ccc(-c2c(-c3ccncc3)cnn2C2CCCCO2)cc1 (stereo not drawn) [Compound 57, 4-[5-(4-tert-butylphenyl)-1-(tetrahydro-2H-pyran-2-yl)-1H-pyrazol-4-yl]pyridine]",2.02
15,"N#Cc1cc(-c2c(-c3ccncc3)cnn2C2CCCCO2)ccc1F (stereo not drawn) [Compound 61, 2-fluoro-5-[4-(pyridin-4-yl)-1-(tetrahydro-2H-pyran-2-yl)-1H-pyrazol-5-yl]benzonitrile]",1.45
16,COc1ccc(-c2nn(C3CCCCO3)cc2-c2cc(-n3cccn3)ncn2)cc1 (stereo not drawn) [Compound 62],3.32
17,CCNc1cc(-c2cn(C3CCCCO3)nc2-c2ccc(F)cc2)ncn1 (stereo not drawn) [Compound 63],1.42
18,"COc1cc(F)ccc1-c1c(-c2ccncc2)cnn1C1CCCCO1 (stereo not drawn) [Compound 64, 4-[5-(4-fluoro-2-methoxyphenyl)-1-(tetrahydro-2H-pyran-2-yl)-1H-pyrazol-4-yl]pyridine]",1.26
19,COc1ccc(-c2nn(C3CCCCO3)cc2-c2ncnc3[nH]ccc23)cc1 (stereo not drawn) [Compound 65],1.54
20,"c1ccc(Oc2cccc(-c3c(-c4ccncc4)cnn3C3CCCCO3)c2)cc1 (stereo not drawn) [Compound 67, 4-[5-(3-phenoxyphenyl)-1-(tetrahydro-2H-pyran-2-yl)-1H-pyrazol-4-yl]pyridine]",1.88
21,"CS(=O)(=O)c1ccc(-c2c(-c3ccncc3)cnn2C2CCCCO2)cc1 (stereo not drawn) [Compound 68, 4-{5-[4-(methylsulphonyl)phenyl]-1-(tetrahydro-2H-pyran-2-yl)-1H-pyrazol-4-yl}pyridine]",0.96
22,COc1ccc(-c2nn(C3CCCCO3)cc2-c2ccnc(N)c2)cc1 (stereo not drawn) [Compound 69],1.31
23,FC(F)(F)Oc1ccc(-c2c(-c3ccncc3)cnn2C2CCCCO2)cc1 (stereo not drawn) [Compound 71],1.78
24,COc1ccc(-c2nn(C3CCCCO3)cc2-c2ccnc(C)c2)cc1 (stereo not drawn) [Compound 73],1.33
25,CSc1nccc(-c2cn(C3CCCCO3)nc2-c2ccc(F)cc2)n1 (stereo not drawn) [Compound 74],3.58
26,"Clc1cccc(-c2c(-c3ccncc3)cnn2C2CCCCO2)c1Cl (stereo not drawn) [Compound 76, 4-[5-(2,3-dichlorophenyl)-1-(tetrahydro-2H-pyran-2-yl)-1H-pyrazol-4-yl]pyridine]",1.66

row,Compound,chromatographic logP
1,COc1ccc(-c2nn(C3CCCCO3)cc2-c2ccnc(C)n2)cc1 (stereo not drawn) [Compound 77],2.27
2,Fc1ccc(-c2nn(-c3ccc(C(F)(F)F)cn3)cc2-c2ccncc2)cc1 [Compound 79],2.64
3,COc1ccc(-c2nn(C3CCCCO3)cc2-c2ccnc3[nH]ccc23)cc1 (stereo not drawn) [Compound 80],1.87
4,CC(C)(C)C(=O)Nc1cc(-c2cnn(C3CCCCO3)c2-c2cccc(C(F)(F)F)c2)ccn1 (stereo not drawn) [Compound 82],3.84
5,CNC(=O)c1cc(-c2cn(C3CCCCO3)nc2-c2cccc(Cl)c2)ccn1 (stereo not drawn) [Compound 83],3.15
6,CNC(=O)c1cc(-c2cn(C3CCCCO3)nc2-c2ccc(F)cc2)ccn1 (stereo not drawn) [Compound 90],2.72
7,O=C(Nc1ccccc1)c1cc(-c2cn(C3CCCCO3)nc2-c2ccc(F)cc2)ccn1 (stereo not drawn) [Compound 94],4.34
8,NC(=O)c1cc(-c2cn(C3CCCCO3)nc2-c2cccc(Cl)c2)ccn1 (stereo not drawn) [Compound 95],2.93
9,O=C(Nc1ccccc1)c1cc(-c2cn(C3CCCCO3)nc2-c2cccc(Cl)c2)ccn1 (stereo not drawn) [Compound 96],4.89
10,CC(C)n1ncc(-c2ccnc(N)c2)c1-c1ccc(F)cc1 [Compound 97],1.25
11,"c1ccc(COc2ccccc2-c2c(-c3ccncc3)cnn2C2CCCCO2)cc1 (stereo not drawn) [Compound 98, 4-{5-[2-(benzyloxy)phenyl]-1-(tetrahydro-2H-pyran-2-yl)-1H-pyrazol-4-yl}pyridine]",1.64
12,"c1cnc2c(-c3c(-c4ccncc4)cnn3C3CCCCO3)cccc2c1 (stereo not drawn) [Compound 99, 8-[4-(pyridin-4-yl)-1-(tetrahydro-2H-pyran-2-yl)-1H-pyrazol-5-yl]quinoline]",1.09
13,Fc1ccc(-c2nn(Cc3cccnc3)cc2-c2ccncc2)cc1 [Compound 100],0.78
14,Fc1ccc(-c2nn(Cc3ccc(OC(F)F)cc3)cc2-c2ccncc2)cc1 [Compound 109],1.88
15,Fc1ccc(-c2nn(-c3nnc(C(F)(F)F)s3)cc2-c2ccncc2)cc1 [Compound 111],2.9
16,Fc1ccc(-c2nn(-c3cc(C(F)(F)F)ncn3)cc2-c2ccncc2)cc1 [Compound 112],2.73
17,Fc1ccc(-c2nn(Cc3ccccn3)cc2-c2ccncc2)cc1 [Compound 115],0.99
18,Fc1ccc(-c2nn(CCc3ccccc3Cl)cc2-c2ccncc2)cc1 [Compound 119],2.04
19,Fc1ccc(-c2nn(Cc3ccncc3)cc2-c2ccncc2)cc1 [Compound 121],0.25
20,OCC(O)Cn1cc(-c2ccncc2)c(-c2ccc(F)cc2)n1 (stereo not drawn) [Compound 124],0.17
21,Fc1ccc(-c2nn(Cc3cccc(-c4ccccc4)c3)cc2-c2ccncc2)cc1 [Compound 125],2.38
22,Fc1ccc(-c2nn(Cc3ccccc3F)cc2-c2ccncc2)cc1 [Compound 128],1.84
23,Fc1ccc(Cn2cc(-c3ccncc3)c(-c3ccc(F)cc3)n2)cc1 [Compound 130],1.69
24,Fc1ccc(-c2nn(Cc3ccc(-c4ccccc4)cc3)cc2-c2ccncc2)cc1 [Compound 131],2.39
25,Fc1ccc(-c2nn(Cc3ccc(F)c(Oc4ccccc4)c3)cc2-c2ccncc2)cc1 [Compound 139],2.4
